# Experimental data as given in patent publication US5591756A, “LTB4 synthesis inhibitors” (G. D. Searle & Co., priority 1995, dated 1997).
# Experiments:
# [1] = target: T1, Human synovial fluid phospholipase A2 (HSF-PLA2) (Homo sapiens, UniProt P14555); assay: Human synovial fluid phospholipase A2 (HSF-PLA2) assay; assay type: biochemical; conditions: [14C]-oleate-labeled E. coli substrate, pH 7.0, 5 min pre-incubation, 37° C., 30 minutes
# T1 construct: Human synovial fluid phospholipase A2 was purified approximately 5000 fold; from tissue; host or cells: human synovial fluid (enzyme purified about 5000 fold)
# T1 sequence (P14555 21-144): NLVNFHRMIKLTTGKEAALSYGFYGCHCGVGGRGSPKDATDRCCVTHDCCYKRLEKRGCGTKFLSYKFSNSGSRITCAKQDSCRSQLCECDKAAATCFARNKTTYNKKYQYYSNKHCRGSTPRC
# Experimental: Human synovial fluid phospholipase A2 was purified approximately 5000 fold following the procedures of Franson et al., Lung 160, 275-284 (1982) and Fawzy et al., Bio Phys. J. 49, 533a (1986). Following purification the enzyme activity was measured by established methodology using [^14 C]-oleate-labeled, autoclaved E. coli as the substrate as also shown in the above noted references. The assay was performed in a final volume of 100 μl containing 50 mM HEPES (pH 7.0), 150 mM NaCl, 5 mM CaCl2, 7 nM [^14 C]-oleate-labeled E. coli phospholipid and with or without the compound from one of the examples herein undergoing an assay. The compound or control vehicle was pre-incubated with the PLA2 for 5 minutes followed by addition of the E. coli substrate to initiate the reaction. The reaction was maintained at 37° C. for 30 minutes and then terminated by the addition of 2 ml tetrahydrofuran (THF). The reaction product, [^14 C]-oleic acid, was extracted using a 1 ml Bond Elut-NH2 Solid phase extraction column. The IC50 value for the compound (mean±S.E.) is given in the following Table and represents the concentration of the compound required to inhibit 50% of the PLA2 activity.
# [2] = system: LTB4 Biosynthesis, Human PMNs; assay: LTB4 biosynthesis inhibition in human PMNs; assay type: cell-based; conditions: read-out: LTB4 Biosynthesis inhibition cells IC50, Human PMNs
# [3] = system: LTB4 Biosynthesis, HL-60 cells; assay: Assay for LTB4 (and PGE2) production by HL-60 cells; assay type: cell-based; conditions: Homo sapiens; differentiated HL-60 cells, 10 min pre-incubation 37° C., stimulated with 5×10^-6 M calcium ionophore A23187, radioimmunoassay; read-out: LTB4 Biosynthesis inhibition cells IC50, HL60 Cells
# Experimental: HL-60 cells were induced to differentiate into granulocytes by a 4 day incubation with 0.8% (v/v) N,N-dimethyl formamide as disclosed in Fontana et al., Proc. Natl. Acad. Sci. 78. (6): 3863-3866 (1981); Agins et al., Biochem. Biophys. Res. Comm. 126, 143-149 (1985); and Bonser et al., Biochemistry 20: 5297-5301 (1981). Prior to performing the assay, differentiated HL-60 cells were washed once with Hanks' balanced salt solution containing 0.35 mg/ml sodium bicarbonate and 10 mM HEPES pH 7.35 (HBSS). HL-60 cells (3×10^6 cells/ml) were pre-incubated with the compound tested or a control vehicle at 37° C. for 10 minutes, followed by 5 minute incubation with 5×10^-6 M calcium ionophore A23187 in a final volume of 1.0 ml. After incubation, the cells were pelleted by centrifugation and the LTB4 and PGE2 in the supernatent were quantified by radioimmunoassay. IC50 values (means±S.E.) for compounds herein that were tested are shown in the following Table and represent the concentrations of the compound required to inhibit 50% of LTB4 or PGE2 production by HL-60 cells stimulated with the calcium ionophore A23187.
IC50 [1],IC50 [2],IC50 [3],SMILES
90 µM,,,"CCCCCCCCCCCCCC(=O)CC(=O)c1ccc(C(=O)O)cc1 [Example 4, 4-(1,3-dioxohexadecanyl)benzoic acid]"
1.7 µM,1.2 µM,1.5 µM,"CCCCCCCCCCCCCC(=O)CC(=O)c1cccc(C(=O)O)c1 [Example 5, 3-(1,3-dioxohexadecanyl)benzoic acid]"
2.7 µM,3.5 µM,4.7 µM,"CCCCCCCCCCCCCC(=O)CC(=O)c1ccc(C(=O)O)o1 [Example 9, 5-(1,3-dioxohexadecanyl)-2-furancarboxylic acid]"
1.9 µM,2.7 µM,,"CCCCCCCCCCCCCC(=O)CC(=O)c1ccc(C(=O)O)s1 [Example 15, 5-(1,3-dioxohexadecyl)-2-thiophenecarboxylic acid]"
48 µM,3 µM,,"CCCCCCCCCCCCCC(=O)CC(=O)c1cccc(-c2nnn[nH]2)c1 [Example 19, 1-[3-(1H-tetrazol-5-yl)phenyl]-1,3-hexadecadione]"
16 µM,2.7 µM,,"O=C(CCCCCCCCCOc1ccccc1)CC(=O)c1ccc(C(=O)O)cc1 [Example 22, 4-(1,3-dioxo-12-phenoxydodecyl)benzoic acid]"
